One data set has as its system M14. Nature of the data set: NCI anticancer screening, Melanoma M14. The data set is classed as cell-based. To be noted: Homo sapiens; M14, 10 μM; read-out: % Growth Inhibition (GI %). From the text:
(§1) The compound has been processed according to standard method NCI-60 Human Tumor Cell Lines Screen for organic compound at development therapeutic program (DTP). Requests for access to this national resource can be submitted online at: […]

The subject of another data set is UO-31. Nature of the data set: NCI anticancer screening, Renal Cancer UO-31. The data set is classed as cell-based. To be noted: Homo sapiens; UO-31, 10 μM; read-out: % Growth Inhibition (GI %).
Excerpt: as §1

The subject of the next data set is UACC-62. Nature of the data set: NCI anticancer screening, Melanoma UACC-62. It is filed as cell-based. To be noted: Homo sapiens; UACC-62, 10 μM; read-out: % Growth Inhibition (GI %).
Excerpt: as §1

In the next data set the test system is MCF7. The data set can be described thus: NCI anticancer screening, Breast Cancer MCF7. The data set is classed as cell-based. Particulars: Homo sapiens; MCF7, 10 μM; read-out: % Growth Inhibition (GI %).
Excerpt: as §1

The next data set deals with RPMI-8226. Nature of the data set: NCI anticancer screening, Leukemia RPMI-8226. It is filed as cell-based. Particulars: Homo sapiens; RPMI-8226, 10 μM; read-out: % Growth Inhibition (GI %).
Excerpt: as §1

In a further data set the test system is MDA-MB-468. The data set can be described thus: NCI anticancer screening, Breast Cancer MDA-MB-468. The data set is classed as cell-based. To be noted: Homo sapiens, read-out: % Growth Inhibition (GI %).
Excerpt: as §1

In the next data set the test system is BT-549. Nature of the data set: NCI anticancer screening, Breast Cancer BT-549. Particulars: Homo sapiens; BT-549, 10 μM; read-out: % Growth Inhibition (GI %). It is filed as cell-based.
Excerpt: as §1

Another data set relates to NCI-H460. The data set can be described thus: NCI anticancer screening, Non-Small Cell Lung Cancer NCI-H460. The data set is classed as cell-based. Particulars: Homo sapiens; NCI-H460, 10 μM; read-out: % Growth Inhibition (GI %).
Excerpt: as §1

The test system of a further data set is KM12. The data set can be described thus: NCI anticancer screening, Colon Cancer KM12. It is filed as cell-based. Particulars: Homo sapiens; KM12, 10 μM; read-out: % Growth Inhibition (GI %).
Excerpt: as §1

The test system of another data set is OVCAR-3. The data set can be described thus: NCI anticancer screening, Ovarian Cancer OVCAR-3. It is filed as cell-based. Particulars: Homo sapiens; OVCAR-3, 10 μM; read-out: % Growth Inhibition (GI %).
Excerpt: as §1

The next data set concerns NCI-H23. The data set can be described thus: NCI anticancer screening, Non-Small Cell Lung Cancer NCI-H23. The data set is classed as cell-based. To be noted: Homo sapiens; NCI-H23, 10 μM; read-out: % Growth Inhibition (GI %).
Excerpt: as §1

In another data set the test system is SF-268. The data set can be described thus: NCI anticancer screening, CNS Cancer SF-268. The data set is classed as cell-based. To be noted: Homo sapiens; SF-268, 10 μM; read-out: % Growth Inhibition (GI %).
Excerpt: as §1

The test system of another data set is NCI-H226. The data set can be described thus: NCI anticancer screening, Non-Small Cell Lung Cancer NCI-H226. The data set is classed as cell-based. To be noted: Homo sapiens; NCI-H226, 10 μM; read-out: % Growth Inhibition (GI %).
Excerpt: as §1

Another data set has as its system OVCAR-5. The data set can be described thus: NCI anticancer screening, Ovarian Cancer OVCAR-5. The data set is classed as cell-based. To be noted: Homo sapiens; OVCAR-5, 10 μM; read-out: % Growth Inhibition (GI %).
Excerpt: as §1

Data set [1] in a line: MTT cytotoxicity to normal human lung fibroblast Wi-38 cell line. It is filed as cell-based. To be noted: Wi-38 normal lung fibroblast cells, mean ± SEM, read-out: percentage of Wi-38 viability. On the procedure:
Normal human lung fibroblast Wi-38 cell line was used to detect cytotoxicity of the studied compounds (Table S8). Wi-38 cell line was cultured in DMEM medium-contained 10% fetal bovine serum (FBS), seeded as 5x10^3 cells per well in 96-well cell culture plate and incubated at 37 °C in 5% CO2 incubator. After 24 h for cell attachment, serial concentrations of the synthetic compounds were incubated with Wi-38 cells for 72 h. Cell viability was assayed by MTT method (Mosmann, 1983). Twenty microliters of 5 mg/ml MTT (Sigma, USA) was added to each well and the plate was incubated at 37 °C for 3 h. Then MTT solution was removed, 100 µl DMSO was added and the absorbance of each well was measured with a microplate reader (BMG LabTech, Germany) at 570 nm.

Data set [2] addresses T1, Mdm2 (residues 1–118 T47W) (Homo sapiens, UniProt Q00987, T47W).
T1 construct: Mdm2 (residues 1–118 T47W; 500 nM)
The data set can be described thus: MDM2 binding by microscale thermophoresis (MST). On the procedure: MST is a complementary biophysical assay to assess the binding of a small molecule to its receptor. […] Experiments were performed in 50 mM phosphate buffer at pH 7.4 containing 150 mM NaCl, 5 mM DTT, and 5% DMSO. […] Kd values and uncertainties were calculated using the MO Affinity Analysis software.

The test system of a further data set is UACC-257. Nature of the data set: NCI anticancer screening, Melanoma UACC-257. It is filed as cell-based. Particulars: Homo sapiens; UACC-257, 10 μM; read-out: % Growth Inhibition (GI %).
Excerpt: as §1

The test system of data set [3] is leukemia cells (CCRF-CEM; HL-60 (TB); K-562; MOLT-4; RPMI-8226, SR). Nature of the data set: NCI anticancer screening, leukemia subpanel. Particulars: smaller GI% than the other compounds. It is filed as cell-based, human.
Excerpt: as §1

Another data set concerns IGROV1. Nature of the data set: NCI anticancer screening, Ovarian Cancer IGROV1. To be noted: Homo sapiens, IGROV-1; IGROV1, 10 μM; read-out: % Growth Inhibition (GI %). It is filed as cell-based.
Excerpt: as §1

A further data set has as its system HCT-15. Nature of the data set: NCI anticancer screening, Colon Cancer HCT-15. To be noted: Homo sapiens; HCT-15, 10 μM; read-out: % Growth Inhibition (GI %). It is filed as cell-based.
Excerpt: as §1

The test system of the next data set is MDA-MB-435. The data set can be described thus: NCI anticancer screening, Melanoma MDA-MB-435. It is filed as cell-based. To be noted: Homo sapiens; MDA-MB-435, 10 μM; read-out: % Growth Inhibition (GI %).
Excerpt: as §1

The test system of another data set is HT29. The data set can be described thus: NCI anticancer screening, Colon Cancer HT29. The data set is classed as cell-based. To be noted: Homo sapiens, HT-29; HT29, 10 μM; read-out: % Growth Inhibition (GI %).
Excerpt: as §1

The values below come from paper PMC11033320, “Activation of p53 signaling and regression of breast and prostate carcinoma cells by spirooxindole-benzimidazole small molecules” (Frontiers in Pharmacology, 2024).

T1 sequence (Q00987 1-118 T47W): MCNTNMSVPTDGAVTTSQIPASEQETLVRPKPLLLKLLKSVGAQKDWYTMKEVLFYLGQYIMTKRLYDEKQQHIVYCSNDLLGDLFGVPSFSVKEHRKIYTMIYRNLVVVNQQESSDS

Turning to `O=C(c1nc2ccccc2[nH]1)[C@H]1[C@H](c2ccc(Br)cc2)C2CSCN2[C@]12C(=O)Nc1ccccc12` (stereo partly drawn) [Compound 6l, (3S,6′R)-6'-(1H-Benzo [d]imidazole-2-carbonyl)-7'-(4-bromophenyl)-3′,6′,7′,7a′-tetrahydro-1′H-spiro [indoline-3.5′-pyrrolo [1,2-c]thiazol]-2-one], the inhibition at 10 µM stood at 68.6% in the data set with M14; 48.6% with UO-31; 70.5% in the data set on UACC-62; 60.6% in the data set with MCF7; 61.3% in the data set on RPMI-8226; 87.2% in the data set with MDA-MB-468. Besides, the inhibition at 10 µM is 90.2% in the data set on BT-549; 66.2% in the data set with NCI-H460; 59.8% in the data set with KM12; 79.8% in the data set on OVCAR-3; 75% in the data set with NCI-H23; 71.5% with SF-268. Further, the inhibition at 10 µM came to 74.8% with NCI-H226; 95.9% with OVCAR-5; 77.9% in the data set with UACC-257; 63.6% with IGROV1; 67% with HCT-15; 67.9% in the data set on MDA-MB-435. Further, the inhibition at 10 µM in the data set on HT29 was 80.2%. Also, the viability at 72 h, 5 µM in data set [1] stood at 37.4 ± 2.02%. Further, the equilibrium dissociation constant (Kd) in [2] was 49.9 µM. In [3], the “GI% for MOLT-4, RPMI-8226, and SR cancer cells” value (“GI%” for short) stood at 75%.

Take `O=C(c1nc2ccccc2[nH]1)[C@H]1[C@H](c2ccc(Cl)cc2)C2CSCN2[C@]12C(=O)Nc1ccccc12` (stereo partly drawn) [Compound 6b, (3S,6′R)-6'-(1H-Benzo [d]imidazole-2-carbonyl)-7'-(4-chlorophenyl)-3′,6′,7′,7a′-tetrahydro-1′H-spiro [indoline-3.5′-pyrrolo [1,2-c]thiazol]-2-one]: the inhibition at 10 µM in the data set with M14 came out at 79.4%; in the data set on UO-31 it was 49%; in the data set on UACC-62, 73.9%; with MCF7, 74.7%; in the data set with RPMI-8226, 63.2%; in the data set with MDA-MB-468, 89.4%. Besides, the inhibition at 10 µM with BT-549 was determined as 97%; with NCI-H460, 74.3%; in the data set with KM12, 66.5%; in the data set on OVCAR-3 it was 86.4%; with NCI-H23 it was 81.4%; in the data set with SF-268, 77.5%. Also, the inhibition at 10 µM with NCI-H226 came out at 74%; in the data set with OVCAR-5, 92.5%; with UACC-257, 95.2%; in the data set on IGROV1, 68.9%; in the data set with HCT-15, 76.6%; with MDA-MB-435, 79.9%. For the same compound, in the data set with HT29, the inhibition at 10 µM was 80.9%. For the same compound, the viability at 72 h, 5 µM in [1] turned out to be 49.6 ± 1.19%. The “GI%” value in data set [3] is listed as 75%.

Consider `O=C(c1nc2ccccc2[nH]1)[C@H]1[C@H](c2cccc(O)c2)C2CSCN2[C@]12C(=O)Nc1ccccc12` (stereo partly drawn) [Compound 6h, (3S,6′R)-6'-(1H-Benzo [d]imidazole-2-carbonyl)-7'-(3-hydroxyphenyl)-3′,6′,7′,7a′-tetrahydro-1′H-spiro [indoline-3.5′-pyrrolo [1,2-c]thiazol]-2-one], for which the inhibition at 10 µM turned out to be 97.3% in the data set on M14; 60.6% with UO-31; 80% in the data set on UACC-62; 92.8% with MCF7; 82.4% with RPMI-8226; 104% in the data set on MDA-MB-468. Besides, the inhibition at 10 µM was determined as 107% in the data set with BT-549; 94.8% in the data set on NCI-H460; 89.4% with KM12; 97.2% with OVCAR-3; 99.3% with NCI-H23; 88.5% with SF-268. The inhibition at 10 µM was found to be 99.1% with NCI-H226; 92.9% with OVCAR-5; 91.9% in the data set with UACC-257; 87.9% with IGROV1; 103% in the data set on HCT-15; 93.5% in the data set with MDA-MB-435. The inhibition at 10 µM in the data set with HT29 stood at 104%. Moreover, the viability at 72 h, 5 µM in data set [1] came out at 51 ± 1.83%. This compound also displayed a Kd in data set [2] of 6.68 µM.

Turning to `O=C(c1nc2ccccc2[nH]1)[C@H]1[C@H](c2ccc(Cl)cc2Cl)C2CSCN2[C@]12C(=O)Nc1ccccc12` (stereo partly drawn) [Compound 6g, (3S,6′R)-6'-(1H-Benzo [d]imidazole-2-carbonyl)-7'-(2,4-dichlorophenyl)-3′,6′,7′,7a′-tetrahydro-1′H-spiro [indoline-3.5′-pyrrolo [1,2-c]thiazol]-2-one], the inhibition at 10 µM with M14 was found to be 66.8%; in the data set with UO-31, 39.7%; in the data set with UACC-62, 57%; in the data set on MCF7, 51%; with RPMI-8226, 42.5%; in the data set on MDA-MB-468, 69.2%. In addition, the inhibition at 10 µM with BT-549 was found to be 92.3%; with NCI-H460, 55.5%; with KM12, 52.3%; in the data set with OVCAR-3, 69.7%; in the data set with NCI-H23, 85.4%; in the data set with SF-268, 47%. Besides, the inhibition at 10 µM in the data set on NCI-H226 worked out at 61.8%; with OVCAR-5 it was 86.1%; with UACC-257, 74.4%; in the data set on IGROV1, 54.8%; in the data set on HCT-15, 56%; in the data set on MDA-MB-435 it was 56%. In the data set on HT29, the inhibition at 10 µM is 61.9%. The viability at 72 h, 5 µM in [1] was found to be 40 ± 1.1%. Moreover, in data set [3], the “GI%” value came to 75%.

What is called inhibition is the drop in the measured response relative to a control, in per cent. A word on the viability: it is the share of living cells, or the viability signal relative to a control. A word on the Kd: it is a measure of binding affinity in units of concentration.
